These are literature values, as cited in US20110046204A1, “Human Zip1, Zinc and Citrate for Prostate Cancer Screening” (University of Maryland, Balitmore, priority 2006, published 2011).

Broadly, the Kd is the constant that tells how readily two partners part at equilibrium.

For this data set the following is noted: zinc-indicator dye TSQ; read-out: affinity for zinc (Kd).

Each structure is given as a SMILES string.

For `COc1cc(NS(=O)(=O)c2ccc(C)cc2)c2ncccc2c1` [TSQ], the Kd is ~10 nM.
